Reference: patent US20260240154A1, “GLOBODERA PALLIDA CONTROL AGENT” (National Agriculture and Food Research Organization, priority 2021, published 2026)

Key:
Globodera pallida [1] = test: Reduction test of Globodera pallida egg density (pot test); format: in vivo; conditions: 30 days, three pots; for Average density reduction rate at 10 ppm (%): 32 mL of 10 ppm test reagent solution in 800 mL field soil; for Average density reduction rate at 100 ppm (%): 32 mL of 100 ppm test reagent solution in 800 mL field soil
Method: After 20 mg of compound (I) was dissolved in 1 mL of dimethylsulfoxide, 199 mL of a 0.1% polyoxyethylene sorbitan monolaurate aqueous solution was added thereto, to obtain a test reagent solution with a concentration of compound (I) of 100 ppm. Further, this was diluted 10-fold with distilled water, to prepare a 10 ppm test reagent solution.
Soil was collected from a field infected with Globodera pallida, and the egg density was investigated, as follows. The cysts were separated from 100 g of the dried soil by dry flotation-sieving method and crushed to release nematode eggs, and the number of eggs was counted under a stereomicroscope. This was taken as the initial density.
32 mL of the test reagent solution adjusted to 100 ppm or 10 ppm was added to 800 mL of the collected field soil, followed by stirring well. It was packed in a plastic pot (upper diameter: 10.5 cm, height: 22.5 cm), and placed in a greenhouse without any planting for 30 days. Each pot was watered with 26 mL of distilled water every 6 to 7 days.
After 30 days, the soil was spread on an aluminum bat and air-dried, and the cysts were separated from 100 g of the dry soil in the same manner as above, to count the number of remaining eggs (density after treatment). Three pots were installed per concentration for each compound, and the average density reduction rate was calculated from the initial density and the density after treatment.

Globodera pallida eggs = test: Hatching accelerating effect evaluation test for Globodera pallida (liquid immersion test); format: in vivo; conditions: 1 mL of 2 ppm test reagent solution added to 1 mL egg suspension; 16° C.; about 2 weeks; two replicates
Method: A predetermined amount of compound (I) was dissolved in an aqueous solution containing 0.05% (v/v) of polyoxyethylene sorbitan monolaurate (Tween20) to prepare a 100 ppm solution of compound (I).
The 100 ppm solution of compound (I) was further diluted with a 0.05% (v/v) Tween20 aqueous solution to prepare a test reagent solution with a concentration of compound (I) of 2 ppm.
The cysts of Globodera pallida increased in a greenhouse before the previous year were isolated from the soil, immersed in distilled water and kept at 16° C. for about 2 weeks were crushed with a scalpel and the eggs were taken out to obtain an egg suspension. After preparing a density of approximately 600 eggs per mL, Tween 20 was added to a concentration of 0.05% (v/v). 1 mL of this egg suspension was put into a 13.5 mL screw cap glass vial (inner diameter: 2.1 cm, height: 4.8 cm), and 1 mL each of a test reagent solution with a concentration of compound (I) of 2 ppm was added. It was covered and kept at 16° C.
About 2 weeks later, 1 mL was taken out, and the number of hatching larvae and the number of eggs were counted under a stereomicroscope. Two replicates were installed for each compound, and the average hatching rate was calculated.

Globodera pallida [2] = test: Reduction test of Globodera pallida egg density (field plot test); format: in vivo; conditions: for Gp density reduction rate: about 80 days, average of four plots
Method: With reference to Formulation Example 4, a 10% solution of compound No. 2 was prepared. This 10% solution was diluted with distilled water, to prepare test reagent solutions with concentrations of 300 ppm, 30 ppm, and 3 ppm.
Round plots (diameter:30 cm) were installed in a field infected with Globodera pallida, and the reducing effect of reagent solution treatment on the nematode egg density in soil was investigated. Each plot was prepared by burying a cylinder (30 cm in diameter and 25 cm in height) made of polyethylene sheet to a depth of 20 cm. Test plots were installed in the field and soil samples in each plot were collected for the initial density survey. Then, the test reagent solution of each concentration was sprayed at a ratio of 5 or 1 L per square meter and the soil in the plot was mixed with a shovel to a depth of 15 cm. As a result, treatments with four different doses of compound (1500, 300, 30 and 3 g per 10 a) were prepared.
About 80 days later, the soil in each plots was collected, and the nematode egg density in the soil was investigated, as follows. The cysts were separated from 100 g of dried soil by a sieving cyst flow method, crushed with a scalpel to extract eggs, suspended in distilled water to extract a certain amount, and the number of eggs was counted under a stereomicroscope.
Four plots were installed for each concentration, and the average density reduction rate was calculated from the initial density and final density.

Gp = conditions: relative to natural hatching factor; cited from earlier work

Molecule | Average density reduction rate at 10 ppm (%) (Globodera pallida [1]) | Average density reduction rate at 100 ppm (%) (Globodera pallida [1]) | Average hatching rate (%) (Globodera pallida eggs) | further results
Cc1ccc(C2CC(=O)NC2(C)C)cc1 (stereo not drawn) [Compound 2, 5,5-dimethyl-4-(4-methylphenyl)-2-pyrrolidinone] | 95.4% | 98.0% | 94.3% | Gp density reduction rate (Globodera pallida [2]; dose 3 g/10 a): 65.6%; Gp density reduction rate (Globodera pallida [2]; dose 300 g/10 a): 94.4%; Gp density reduction rate (Globodera pallida [2]; dose 1500 g/10 a): 98.4%; Reduction of Gp density in the soil (Globodera pallida [2]; dose of 30 g or more per 10a): ≥ 80%; Gp density reduction rate (Globodera pallida [2]; dose printed as 'g/10 a' (third dose level)): 88.8%
CC1(C)NC(=O)CC1c1ccc(Cl)cc1 (stereo not drawn) [Compound 3, 5,5-dimethyl-4-(4-chlorophenyl)-2-pyrrolidinone] | 97.4% | 98.5% | 95.2% | –
CC1(C)NC(=O)CC1c1ccc(Br)cc1 (stereo not drawn) [Compound 4, 5,5-dimethyl-4-(4-bromophenyl)-2-pyrrolidinone] | 98.8% | 98.9% | 97.9% | –
CC1(C)NC(=O)CC1c1ccc(F)c(F)c1 (stereo not drawn) [Compound 12, 5,5-dimethyl-4-(3,4-difluoro-phenyl)-2-pyrrolidinone] | 97.7% | 98.8% | 65.4% | –
Cc1ccc(C2CC(=O)OC2(C)C)cc1 (stereo not drawn) [Compound 18, 5,5-dimethyl-4-(p-tolyl)dihydrofuran-2(3H)-one] | 81.7% | 96.2% | 97.1% | –
Cc1ccc(C2CCC(=O)NC2(C)C)cc1 (stereo not drawn) [Compound A-3, 6,6-dimethyl-5-(p-tolyl)piperidin-2-one] | 94.9% | 97.2% | 97.2% | –
CC1(C)NC(=O)CC1c1ccc(Cl)c(Cl)c1 [Compound D-7] | – | – | 95.2% | –
Cc1ccc(C2CC(=S)NC2(C)C)cc1 [Compound D-8] | – | – | 91.8% | –
CC1(C)OC(=O)C=C1c1ccc(Cl)cc1 [Compound D-9] | – | – | 50.1% | –
CC1(C)OC(=O)C=C1c1cccc2ccccc12 [Compound D-10] | – | – | 36.4% | –
CC1(C)OC(=O)C=C1c1ccc2ccccc2c1 [Compound D-11] | – | – | 59.0% | –
CC1(C)OC(=O)C=C1c1ccc(-c2ccc(Cl)cc2)cc1 [Compound D-12] | – | – | 52.0% | –
Cc1ccccc1C1=CC(=O)OC1(C)C [Compound D-13] | – | – | 60.1% | –
Cc1cccc(C2=CC(=O)OC2(C)C)c1C [Compound D-14] | – | – | 63.7% | –
Cc1ccc(C2=CC(=O)OC2(C)C)c(C)c1 [Compound D-15] | 85.8% | 98.2% | 94.9% | –
Cc1ccc(C)c(C2=CC(=O)OC2(C)C)c1 [Compound D-16] | – | – | 66.5% | –
Cc1cc(C)cc(C2=CC(=O)OC2(C)C)c1 [Compound D-17] | – | – | 55.4% | –
Cc1ccccc1C1=CC(=O)NC1(C)C [Compound D-18] | – | – | 58.8% | –
Cc1ccc(C2=CC(=O)NC2(C)C)c(C)c1 [Compound D-19] | – | – | 95.7% | –
CC1=NN(c2ccc([N+](=O)[O-])cc2)C(=O)C1[N+](=O)[O-] (stereo not drawn) [picrolonic acid] | – | – | – | Hatching activity, % of that of the natural hatching factor (Gp): about 30%
[Na+].[Na+].[Na+].[O]=[V]([O-])([O-])[O-] [sodium orthovanadate] | – | – | – | Hatching activity, % of that of the natural hatching factor (Gp): ~60%
N#C[S-].[Na+] [sodium thiocyanate] | – | – | – | Hatching activity, % of that of the natural hatching factor (Gp): about 30%
sodium metavanadate | – | – | – | Hatching activity, % of that of the natural hatching factor (Gp): ~70%
